Molecular target: T1, bovine Ldh-A (BtLDH) (Bos taurus, UniProt P19858)
T1 construct: gene LDHA; full length, untagged, expressed in S. cerevisiae GRF18U; crude cell extract; homotetramer
Test: LDH activity of crude yeast extract with added lactate (Sigma kit DG1340-UV)
Format: biochemical
Conditions: read-out: % inhibition at 10 g/l

inhibition at 10000 µg/mL: ~40%
SMILES: C[C@H](O)C(=O)O [lactate]
